{
  "source": "patent US20230304024A1",
  "about": "“Modulation of Gene Expression Via Transcription Factor-Chemically Induced Proximity (TF-CIP)” (The Board of Trustees of the Leland Stanford Junior …, priority 2020, published 2023)",
  "key": {"BCL6 reporter": {"tested_on": "BCL6 reporter", "assay": "BCL6 reporter GFP activation", "type": "cell-based, human", "details": "FIG. 6 Panel A", "excerpt": "FIGS. 5A to 5C illustrate the development of reporters for activation of cell death or pro-apoptotic pathways by the disinhibited BCL6 protein or the pro-apoptotic protein FOXO3A. FIG. 5A: The BCL6 reporter consists of an array of BCL6 binding sites taken from different pro-apoptotic genes including TP53, PUMA, BIM and others. These genes have the ability to kill cells when simply overexpressed (PMID:11463391). Ten base pairs on either side of the actual human BCL6 binding site are included to take advantage of the fact that transcriptional specificity is due to the concerted binding of proteins in an enhanceosome (PMID:9510247, 18206362).\n(§1) Note that the higher concentrations lead to a reduction in activation of the reporter consistent with the “hook effect” characteristic of bifunctional molecules as they saturate both binding sites.(PMID: 8752278; PMID:21406691), in this case the BCL6 protein and the estrogen receptor. […] Panel C. […] Viability was measured using the PrestoBlue HS (resazurin) assay for viable cells (1:10 ratio in media and 1 h incubation).\nFIGS. 5A to 5C provide examples of how one measures the effect of a TF-CIP to allow chemical optimization of linker and ligands. […] Thus, the reporter system is multiplexed and useful for defining and quantitating apoptotic responses in many different cell types. […]"}, "Karpas 422": {"tested_on": "Karpas 422", "assay": "Cell death / viability, PrestoBlue HS (resazurin) assay, Karpas 422", "type": "cell-based", "details": "FIG. 6 Panel B, ER-positive cells with amplified/rearranged BCL6, compared with BI3812", "protocol": "as §1\n(§2) These reporter systems and direct measures of cancer cell killing were used to assess the TF-CIP molecules made by rational design that are illustrated in FIG. 4. As shown in Panel A, addition of ER-TF-CIP6 activates GFP expression by the BCL reporter with an EC50 of about 1 to 10 micromolar. […] Note that the higher concentrations lead to a reduction in activation of the reporter consistent with the “hook effect” characteristic of bifunctional molecules as they saturate both binding sites. (PMID: 8752278; PMID:21406691), in this case the BCL6 protein and the estrogen receptor. […] Viability was measured using the PrestoBlue HS (resazurin) assay for viable cells (1:10 ratio in media and 1 h incubation)."}, "HEK293 cells": {"tested_on": "HEK293 cells", "assay": "Cell death / viability, PrestoBlue HS (resazurin) assay, HEK293", "type": "cell-based", "details": "FIG. 6 Panel C", "protocol": "as §1, §2"}, "[1]": {"tested_on": "ER-negative breast cancer cell lines", "assay": "Cell death / viability, PrestoBlue HS (resazurin) assay, ER-negative breast cancer cell lines", "type": "cell-based", "details": "FIG. 6 Panels D and E; two ER-negative or low-ER breast cancer cell lines", "protocol": "as §1, §2"}},
  "note": "“Also recorded” adds a separate entry of the source.",
  "data": [
    {"smiles": "CNC(=O)COc1cc2cc(Nc3nc(N4CCC(C(=O)NCCOCCOCCNC(=O)CO/N=C5\\CCC6C7CCc8cc(O)ccc8C7CC[C@]56C)CC4)ncc3Cl)cc(OC)c2n(C)c1=O", "note": "(stereo partly drawn) [ER-TF-CIP6]", "values": [
      {"measurement": "potency in BCL6 reporter relative to BI3812", "setting": "BCL6 reporter; comparison with parent compound BI3812", "result": "substantially lower concentration than that of the parent compound"},
      {"measurement": "EC50", "setting": "BCL6 reporter; Homo sapiens, read-out: EC50 of activation of GFP expression by the BCL reporter", "result": "1 to 10", "unit": "µM"},
      {"measurement": "induction of cell death", "setting": "Karpas 422", "result": "more effectively than B13812"},
      {"measurement": "induction of cell death", "setting": "Karpas 422; listed as ER-TFCIP6", "result": "more effectively than BI3812"},
      {"measurement": "induction of cell death", "setting": "HEK293 cells", "result": "induces cell death"},
      {"measurement": "cell killing", "setting": "[1]", "result": "does not kill; also recorded: are not killed"}
    ]}
  ]
}
